Assay results as given in ChEMBL document CHEMBL4814071, “Synthesis and antibacterial study of cell-penetrating peptide conjugated trifluoroacetyl and thioacetyl lysine modified peptides” (Eur J Med Chem, 2021).
Structures can show the parent of a compound that is named as a salt. Activity calls are given as the source filed them. The calls are words filed in the database; no cut-off is given here. Where a SMILES comes first, the peptide text is derived from it. The star is where a group is joined. Tfa = O=C(C(F)(F)F)*

What was measured:
Pseudomonas aeruginosa [1] = test: Antibacterial activity against Pseudomonas aeruginosa assessed as reduction in microbial growth after 24 hrs by microplate reader method; type: functional
Cell membrane [2] = test: Disruption of membrane integrity in Staphylococcus aureus at 2 times MIC measured after 20 mins by SEM analysis
Staphylococcus aureus [3] = test: Synergistic antibacterial activity against Staphylococcus aureus assessed as fractional inhibitory concentration index incubated for 24 hrs in presence of streptomycin; type: functional
Staphylococcus aureus [4] = test: Antibiofilm activity against Staphylococcus aureus assessed as inhibition of biofilm formation incubated for 48 hrs by crystal violet staining assay; type: functional
Pseudomonas aeruginosa [5] = test: Synergistic antibacterial activity against Pseudomonas aeruginosa assessed as fractional inhibitory concentration index incubated for 24 hrs in presence of Polymyxin B; type: functional
Cell membrane [6] = test: Disruption of membrane integrity in Escherichia coli assessed as cellular leakage at 2 times MIC by TEM analysis
Staphylococcus aureus [7] = test: Potentiation of streptomycin-induced antibacterial activity against Staphylococcus aureus assessed as streptomycin MIC incubated for 24 hrs by microplate reader method; type: functional
Lipid bilayer [8] = test: Binding affinity to bacterial inner membrane mimic DOPE/DOPG (3:1) large unilamellar vesicles assessed as calcein leakage at 20 uM by fluorescence based assay
Cell membrane [9] = test: Disruption of membrane integrity in Escherichia coli at 2 times MIC measured after 20 mins by SEM analysis
Escherichia coli [10] = test: Antibacterial activity against Escherichia coli assessed as reduction in microbial growth after 24 hrs in presence of polymyxin B by microplate reader method; type: functional
Escherichia coli [11] = test: Potentiation of polymyxin B-induced antibacterial activity against Escherichia coli assessed as polymyxin B MIC incubated for 24 hrs by microplate reader method; type: functional
Escherichia coli [12] = test: Antibiofilm activity against Escherichia coli assessed as as inhibition of biofilm formation incubated for 48 hrs by crystal violet staining assay; type: functional
Escherichia coli [13] = test: Antibiofilm activity against Escherichia coli assessed as biofilm eradication incubated for 24 hrs by crystal violet staining assay; type: functional
BE(2)-C = test: Cytotoxicity against human BE(2)-C cells assessed as reduction in cell viability incubated for 48 hrs by MTT assay; type: cell-based
Escherichia coli [14] = test: Antibacterial activity against Escherichia coli assessed as reduction in microbial growth after 24 hrs by microplate reader method; type: functional
HeLa = test: Cytotoxicity against human HeLa cells assessed as reduction in cell viability incubated for 48 hrs by MTT assay; type: cell-based
Escherichia coli [15] = test: Antibiofilm activity against Escherichia coli assessed as biofilm eradication at 2XMBEC incubated for 12 hrs by SYTO9/PI staining based microscopic analysis; type: functional, organism-based
Staphylococcus aureus [16] = test: Antibacterial activity against Staphylococcus aureus assessed as reduction in microbial growth after 24 hrs by microplate reader method; type: functional
Escherichia coli [17] = test: Synergistic antibacterial activity against Escherichia coli assessed as fractional inhibitory concentration index incubated for 24 hrs in presence of Polymyxin B; type: functional
Staphylococcus aureus [18] = test: Potentiation of streptomycin-induced antibacterial activity against Staphylococcus aureus assessed as fold change in streptomycin MIC incubated for 24 hrs by microplate reader method; type: functional
Lipid bilayer [19] = test: Binding affinity to bacterial inner membrane mimic DOPE/DOPG (3:1) large unilamellar vesicles assessed as calcein leakage at 2.5 uM by fluorescence based assay
Pseudomonas aeruginosa [20] = test: Potentiation of polymyxin B-induced antibacterial activity against Pseudomonas aeruginosa assessed as polymyxin B MIC incubated for 24 hrs by microplate reader method; type: functional
Lipid bilayer [21] = test: Binding affinity to bacterial inner membrane mimic POPE/POPG (3:1) LUVs assessed as increase in intensity by one-dimensional 19F NMR based analysis
Staphylococcus aureus [22] = test: Antibacterial activity against Staphylococcus aureus assessed as reduction in microbial growth after 24 hrs in presence of streptomycin by microplate reader method; type: functional
Staphylococcus aureus [23] = test: Antibiofilm activity against Staphylococcus aureus assessed as biofilm eradication at 2XMBEC incubated for 12 hrs by SYTO9/PI staining based microscopic analysis; type: functional, organism-based
[24] = Inhibition of transcriptional machinery using Puc19-lacCONS plasmid DNA and Escherichia coli RNA polymerase-sigma70 holoenzyme at 10 uM incubated for 35 mins followed by NTP addition for 30 mins by spectrofluorometer analysis; type: functional; details: time 65.0 min
[25] = Induction of yeast killing at 50 uM incubated for 72 hrs in presence of Ura3 and absence of FOA by absorbance based analysis; details: saccharomyces cerevisiae
Staphylococcus aureus [26] = test: Antibiofilm activity against Staphylococcus aureus assessed as biofilm eradication incubated for 24 hrs by crystal violet staining assay; type: functional
[27] = target: NAD-dependent histone deacetylase SIR2 (Saccharomyces cerevisiae S288c) (UniProt P06700); test: Inhibition of yeast sirtuin2-mediated Ura3 transcriptional silencing at telomeric locus assessed as yeast killing at 50 uM incubated for 72 hrs in presence of FOA by absorbance based analysis
Lipid bilayer [28] = test: Binding affinity to mammalian membrane mimic DOPC/40% cholesterol assessed as calcein leakage at 20 uM by fluorescence based assay; type: ADME
Pseudomonas aeruginosa [29] = test: Antibacterial activity against Pseudomonas aeruginosa assessed as reduction in microbial growth after 24 hrs in presence of polymyxin B by microplate reader method; type: functional
[30] = Hemolytic activity against mouse RBC at 1000 uM measured after 1 hr by microplate reader analysis; type: cell-based, Erythrocyte; details: mouse red blood cells (erythrocytes), read-out: Activity
Cell membrane [31] = test: Disruption of membrane integrity in Escherichia coli at 2 times MIC by TEM analysis
Cell membrane [32] = test: Disruption of membrane integrity in Staphylococcus aureus at 2 times MIC by TEM analysis
[33] = Inhibition of transcriptional machinery using Puc19-lacCONS plasmid DNA and Escherichia coli RNA polymerase-sigma70 holoenzyme at 40 uM incubated for 35 mins followed by NTP addition for 30 mins by spectrofluorometer analysis; type: functional; details: time 65.0 min

Chain of NAD-dependent histone deacetylase SIR2 (Saccharomyces cerevisiae S288c) (P06700 whole entry): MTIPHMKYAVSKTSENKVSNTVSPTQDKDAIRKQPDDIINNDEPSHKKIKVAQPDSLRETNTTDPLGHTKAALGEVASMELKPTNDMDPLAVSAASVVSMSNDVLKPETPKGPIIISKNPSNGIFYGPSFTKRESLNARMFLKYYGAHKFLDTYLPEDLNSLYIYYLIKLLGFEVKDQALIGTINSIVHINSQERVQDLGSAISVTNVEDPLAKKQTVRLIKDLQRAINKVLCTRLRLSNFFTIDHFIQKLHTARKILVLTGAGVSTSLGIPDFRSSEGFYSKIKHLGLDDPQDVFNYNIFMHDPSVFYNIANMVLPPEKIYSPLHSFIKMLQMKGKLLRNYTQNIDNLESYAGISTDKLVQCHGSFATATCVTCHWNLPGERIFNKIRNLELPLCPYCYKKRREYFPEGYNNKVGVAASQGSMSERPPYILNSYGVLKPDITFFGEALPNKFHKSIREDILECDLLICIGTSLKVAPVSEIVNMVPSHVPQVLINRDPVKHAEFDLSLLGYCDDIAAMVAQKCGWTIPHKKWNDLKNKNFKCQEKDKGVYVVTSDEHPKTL

SMILES: CC(=O)N[C@@H](Cc1ccc(O)cc1)C(=O)NCC(=O)N[C@@H](CCCNC(=N)N)C(=O)N[C@@H](CCCCN)C(=O)N[C@@H](CCCCN)C(=O)N[C@@H](CCCNC(=N)N)C(=O)N[C@@H](CCCNC(=N)N)C(=O)N[C@@H](CCC(N)=O)C(=O)N[C@@H](CCCNC(=N)N)C(=O)N[C@@H](CCCNC(=N)N)C(=O)N[C@@H](CCCNC(=N)N)C(=O)NCC(=O)NCC(=O)NCC(=O)N[C@@H](CCCCN)C(=O)NCC(=O)N[C@@H](CC(C)C)C(=O)N[C@@H](CCCNC(=N)N)C(=O)N[C@@H](CCCCNC(=O)C(F)(F)F)C(=O)N[C@@H](Cc1ccccc1)C(=O)NCC(=O)N[C@@H](C)C(=O)N[C@@H](CCCCN)C(=O)N[C@@H](CCCNC(=N)N)C(=O)N[C@@H](Cc1cnc[nH]1)C(=O)N[C@@H](CCCNC(=N)N)C(=O)N[C@@H](CS)C(=O)O (Ac-YGRKKRRQRRRGGGKGLRK(Tfa)FGAKRHRC-OH)
- MIC (Pseudomonas aeruginosa [1]): 25 µM
- Activity (Cell membrane [2]): Active
- fractional inhibitory concentration index (FICI) (Staphylococcus aureus [3]): 0.22
- MBIC (Staphylococcus aureus [4]): 0.8 µM
- fractional inhibitory concentration index (FICI) (Pseudomonas aeruginosa [5]): 0.42
- Activity (Cell membrane [6]): Active
- MIC (Staphylococcus aureus [7]): 0.38 µM
- Activity (Lipid bilayer [8]): Active
- Activity (Cell membrane [9]): Active
- MIC (Escherichia coli [10]): 0.63 µM
- MIC (Escherichia coli [11]): 0.1 µM
- MBIC (Escherichia coli [12]): 15.6 µM
- MBEC (Escherichia coli [13]): 62.5 µM
- IC50 (BE(2)-C): 17.4 µM
- MIC (Escherichia coli [14]): 1.5 µM
- IC50 (HeLa): 20.2 µM
- Activity (Escherichia coli [15]): Active
- MIC (Staphylococcus aureus [16]): 0.2 µM
- fractional inhibitory concentration index (FICI) (Escherichia coli [17]): 0.73
- fold change (FC) (Staphylococcus aureus [18]): 6
- Activity (Lipid bilayer [19]): 90%
- MIC (Pseudomonas aeruginosa [20]): 0.05 µM
- Activity (Lipid bilayer [21]): Active
- MIC (Staphylococcus aureus [22]): 0.05 µM
- Activity (Staphylococcus aureus [23]): Active
- inhibition [24]: 100%
- Activity [25]: Toxic
- MBEC (Staphylococcus aureus [26]): 3.2 µM
- inhibition [27]: Active
- Activity (Lipid bilayer [28]): < 20%
- MIC (Pseudomonas aeruginosa [29]): 12.5 µM
- hemolysis at 1 h, 1000 µM [30]: < 5%
- Activity (Cell membrane [31]): Active
- Activity (Cell membrane [32]): Active

SMILES: CC(=O)N[C@@H](CCCCN)C(=O)NCC(=O)N[C@@H](CC(C)C)C(=O)N[C@@H](CCCNC(=N)N)C(=O)N[C@@H](CCCCNC(=O)C(F)(F)F)C(=O)N[C@@H](Cc1ccccc1)C(=O)NCC(=O)N[C@@H](C)C(=O)N[C@@H](CCCCN)C(=O)N[C@@H](CCCNC(=N)N)C(=O)N[C@@H](Cc1cnc[nH]1)C(=O)N[C@@H](CCCNC(=N)N)C(=O)N[C@@H](CS)C(N)=O (Ac-KGLRK(Tfa)FGAKRHRC-NH2)
- MIC (Pseudomonas aeruginosa [1]): > 250 µM
- Activity (Cell membrane [2]): inactive
- fractional inhibitory concentration index (FICI) (Staphylococcus aureus [3]): 0.19
- MBIC (Staphylococcus aureus [4]): 6.3 µM
- fractional inhibitory concentration index (FICI) (Pseudomonas aeruginosa [5]): 0.36
- MIC (Staphylococcus aureus [7]): 0.38 µM
- Activity (Lipid bilayer [8]): 70%
- Activity (Cell membrane [9]): inactive
- MIC (Escherichia coli [10]): 15.6 µM
- MIC (Escherichia coli [11]): 0.05 µM
- MBIC (Escherichia coli [12]): inactive
- MBEC (Escherichia coli [13]): inactive
- IC50 (BE(2)-C): 78 µM
- MIC (Escherichia coli [14]): 125 µM
- IC50 (HeLa): 94.6 µM
- Activity (Escherichia coli [15]): Active
- MIC (Staphylococcus aureus [16]): 1.5 µM
- fractional inhibitory concentration index (FICI) (Escherichia coli [17]): 0.36
- fold change (FC) (Staphylococcus aureus [18]): 6
- MIC (Pseudomonas aeruginosa [20]): 0.1 µM
- Activity (Lipid bilayer [21]): Active
- MIC (Staphylococcus aureus [22]): 0.31 µM
- Activity (Staphylococcus aureus [23]): Active
- Activity [25]: Toxic
- MBEC (Staphylococcus aureus [26]): 12.5 µM
- inhibition [27]: Active
- inhibition [33]: Active
- Activity (Lipid bilayer [28]): < 20%
- MIC (Pseudomonas aeruginosa [29]): 25 µM
- hemolysis at 1 h, 1000 µM [30]: < 5%
